From article PMC4851402, “Validation of N-myristoyltransferase as Potential Chemotherapeutic Target in Mammal-Dwelling Stages of Trypanosoma cruzi” (PLoS Neglected Tropical Diseases, 2016)
“Also recorded” adds a separate entry of the source. Read-outs that look alike come from different tables or passages of the source.

Tests used:
U2OS cells = assay: Cytotoxicity (viability) assay on non-infected U2OS cells, high-content imaging; format: cell-based, human; conditions: for EC50: Homo sapiens, read-out: U2OS cells EC50; for Toxicity on U2OS cells: after 48 h of treatment
Protocol: (§1) DMSO control wells contained 30 μL 6% DMSO, whereas wells for the negative control contained 1% hydrogen peroxide in DMEM. U2OS cells were resuspended in DMEM, 10% HI-FBS, to give a cell density of 2 x 10^5 cells/mL, while ICA forms were resuspended in DMEM, 10% HI-FBS, to a final density of 1 x 10^7 per well. Epi forms were resuspended in LIT medium to a density of 1 x 10^6 parasites per well. Hundred and fifty microliters of the suspension containing either host cells or parasites were added per well. Following 47- and 23-h incubation at 37°C for mammalian cells and ICA, respectively, a mixture of propidium iodide (Invitrogen) and Hoechst dye (Invitrogen) diluted in culture media (1 μg/mL each) was added to the plates, which were then further incubated for 1 h at 37°C. […] In the case of Epi, after 68-h incubation at 28°C, 18 μL Alamar Blue (AbD Serotec, Raleigh, NC) were added per well. Following an additional 4-h incubation, the plate was read in a microplate fluorometer (Thermo Scientific) at excitation 560 nm, emission 590 nm. Three independent experiments were performed in triplicate wells.
(§2) EC50 were determined from three independent experiments.

[1] = tested on: T. cruzi intracellular amastigote proliferation; assay: In vitro T. cruzi intracellular proliferation assay in infected U2OS cells, high-content imaging; format: cell-based, Trypanosoma cruzi (Y strain); conditions: read-out: T. cruzi proliferation assay EC50
Protocol: DMSO control wells contained 30 μL 6% DMSO. Human […] (U2OS cells) were diluted in DMEM, 10% heat inactivated-fetal bovine serum (HI-FBS) to give a cell density of 2 x 10^5 cells/mL. T. cruzi trypomastigotes were resuspended in DMEM, 10% HI-FBS to a final density of 1.2 x 10^7. Cells and parasites were mixed a ratio of 4 volumes of cells plus 1 volume of parasites. 150 μL of the mixture were dispensed per well. Plates were incubated for 48 h. After the incubation period, media was removed from the wells and 100 μL 4% paraformaldehyde (PFA) were added. After 15 min of incubation at room temperature, PFA was removed and cells and parasites were stained with Draq5 (BioStatus, Leicestershire, UK) at a concentration of 5 μM diluted in PBS. The plates were then read in a bioimager system as described below. Three independent experiments were performed in triplicate wells.
Filter sets appropriate for the excitation and emission spectra of Draq5 were utilized. Images from four fields (2 x 2 montage) were acquired per well with a 20x objective. To perform the host cell segmentation and counting of parasites, the BD AttoVision v1.6.2 Sub Object analysis was used. Draq5 creates a background, staining the host cell and parasite nucleus, but defining the cytoplasm as well, determining this way the amount of parasites within each mammalian cell. The host cell nucleus was excluded by size difference. Raw data was imported into the BD Image Data Explorer (BD Biosciences) to determine the percentage of infected cells containing at least 1, at least 3 or at least 5 intracellular parasites.
as §2

[2] = tested on: Epi, ICA and TCT forms of T. cruzi; assay: [35S]-Methionine labeling (protein translation); format: cell-based, Trypanosoma cruzi; conditions: 10 μM, 12 h
Protocol: Parasites were incubated with or without 10 μM of the inhibitors as described above. After 10 h, cells were starved in methionine deficient media for 1 h. Next, 20 μCi.mL^-1 [^35S]-methionine (Perkin Elmer) were added to the samples for 1 h incubation, for a 12-h treatment with the inhibitors. Next, the parasites were washed three times with PBS and lysed in 1% SDS, Tris-HCl, pH 8.0. Samples were ran in 4–12% gels (Expedeon, San Diego, CA) and transferred to polyvinylidene fluoride (PVDF) membranes (Sigma-Aldrich). Membranes were dried and exposed to Hyperfilm ECL (Amersham, GE Healthcare Lifesciences, Piscataway, NJ). To determine total protein levels, membranes were stained with Ponceau S after exposure.

TcNMT [3] = assay: Western blotting of TcNMT expression in treated parasites; format: cell-based, Trypanosoma cruzi; conditions: 10 μM, 12 h
Protocol: Parasites (1 x 10^7 cells) were incubated with or without 10 μM of the inhibitor (compound 1, 5, or 8) in 1 mL 10% HI-FBS, DMEM at 37°C for ICA and TCT, and at 28°C for Epi for 12 h. Next, parasites were washed three times with PBS and lysed in 1% SDS, Tris-HCl, pH 8.0. Samples were run in 10% SDS-PAGE followed by western blot probed with anti-TcNMT at dilution 1:1000 in 5% milk-PBS overnight. This was followed by incubation with anti-rabbit IgG-HRP conjugated. The membrane was next stripped with boiling stripping buffer (3% SDS, 0.3% β-mercaptoethanol) for 10 min, followed by 4 washes with 0.1% PBS-T. It was then blot again with anti-BiP at dilution 1:500 in 5% milk-PBS overnight, at 4°C, followed by anti-rabbit IgG HRP-conjugated.

[4] = tested on: Purified ICAs of T. cruzi; assay: microbe, parasite or virus in culture; format: cell-based, Trypanosoma cruzi (Y strain); conditions: for EC50: read-out: Purified ICAs EC50
Protocol: Intracellular amastigote (ICA) forms were purified as described. Briefly, 5 x 10^6 LLC-MK2 cells were seeded in a 150-cm^2 tissue culture flask (NUNC, Thermo Scientific) and cells were grown for 3–4 days to reach confluency of ~2 x 10^7 cells per flask. The medium was then replaced with fresh complete medium and host cells were infected with 1 x 10^8 TCT (multiplicity of infection (MOI) ≈ 5). After 5 days, the infected monolayers were gently detached by scraping and resuspended in 5 mL phosphate-buffered saline (PBS). The suspension containing the infected cells was next transferred to an M-tube (Miltenyi Biotec Inc., San Diego, CA). This tube bears a special stator and rotor that allows for tissue homogenization. In addition, it has a pre-inserted mesh that retains larger particles, removing them from the homogenized sample. The tube was then placed in the gentleMACS Dissociator (Miltenyi Biotec) for the automated disruption of host cells. The homogenized sample containing the parasites was then passed through a column containing anion exchange preswollen microgranular diethylaminoethyl cellulose (DE52, Whatman, Sigma-Aldrich).
as §1, §2

[5] = tested on: T. cruzi epimastigotes (Epi); assay: Cytotoxicity assay on epimastigotes (Alamar Blue); format: cell-based, Trypanosoma cruzi (Y strain); conditions: after 72 h; for EC50: Trypanosoma cruzi, read-out: Epi forms EC50
Protocol: DDD compounds 1–8 and the reference drug BZ were prepared 6-fold-concentrated in 6% DMSO, to give a final concentration of 1x compound in 1% DMSO. […] DMSO control wells contained 30 μL 6% DMSO, whereas wells for the negative control contained 1% hydrogen peroxide in DMEM. U2OS cells were resuspended in DMEM, 10% HI-FBS, to give a cell density of 2 x 10^5 cells/mL, while ICA forms were resuspended in DMEM, 10% HI-FBS, to a final density of 1 x 10^7 per well. Epi forms were resuspended in LIT medium to a density of 1 x 10^6 parasites per well. Hundred and fifty microliters of the suspension containing either host cells or parasites were added per well. Following 47- and 23-h incubation at 37°C for mammalian cells and ICA, respectively, a mixture of propidium iodide (Invitrogen) and Hoechst dye (Invitrogen) diluted in culture media (1 μg/mL each) was added to the plates, which were then further incubated for 1 h at 37°C. Finally, plates were read in the BD Pathway 855 bioimager system. In the case of Epi, after 68-h incubation at 28°C, 18 μL Alamar Blue (AbD Serotec, Raleigh, NC) were added per well. Following an additional 4-h incubation, the plate was read in a microplate fluorometer (Thermo Scientific) at excitation 560 nm, emission 590 nm. Three independent experiments were performed in triplicate wells. […] EC50 were determined from three independent experiments.

TcNMT [6] = assay: Metabolic labeling with myristic acid, azide and in-gel western blotting (on-target); format: cell-based, Trypanosoma cruzi; conditions: 10 μM, 12 h, Epi, ICA and TCT
Protocol: Parasites were incubated with or without 10 μM of the inhibitor 1, 5, or 8 in 1 mL 2% delipidated BSA-DMEM at 37°C for ICA and TCT and at 28°C for Epi. After 6 h, 100 μM myristic acid, azide (from a 50-mM stock in DMSO) were added to the samples, and the same volume of DMSO was added to the negative control. Cells were incubated for another 6 h, for a 12-h treatment with the inhibitors. Next, the parasites were washed three times with PBS and lysed in 1% SDS, Tris-HCl, pH 8.0. “Click” reaction was performed between the myristic acid azide and Biotin Alkyne (Invitrogen) according to the manufacturer instructions using the Click-iT Protein Reaction Buffer Kit (Invitrogen). Duplicate aliquots of lysates were ran in 10% SDS-PAGE followed by fixing (5% acetic acid, 50% isopropanol) for 15 min. Gels were then analyzed by in-gel western blotting using IRDye streptavidin (LI-COR Biosciences, Lincoln, NE) 1:7500 in 5% BSA, 0.05% SDS, 0.2% Tween in PBS, for 1 h at room temperature. They were subsequently treated or not with 0.2 M NaOH in methanol for 1 h at room temperature. Gels were scanned in an ODYSSEY quantitative imagining system (LI-COR Biosciences). They were next stained with Coomassie blue and scanned again to determine total protein levels.

T. brucei = tested on: T. brucei; set-up: method as in PMID 20360736; conditions: T. brucei bloodstream forms; cited from earlier work
[7] = non-infected U2OS cells, 48 h at 37°C
[8] = Trypanosoma cruzi, U2OS, 48 h, infected U2OS cells, 48 h at 37°C
[9] = Trypanosoma cruzi, 24 h, purified ICAs, 24 h at 37°C

Row | SMILES | EC50 (U2OS cells; [7]) [nM] | Toxicity on U2OS cells (U2OS cells) | EC50 [1, 8] [nM] | Incorporation of [35S]-methionine into proteins [2] | TcNMT expression in Epi (TcNMT [3]) | EC50 [4, 9] [nM] | Protein N-myristoylation bands (myristic acid azide labeling) (TcNMT [6]) | further results
1 | Cc1c(NS(=O)(=O)c2c(Cl)cc(-c3ccnc(N4CCNCC4)c3)cc2Cl)c(CC(C)C)nn1C [Compound 1] | 12800 | toxicity only at 50 μM | 180 | no effect | overexpression of TcNMT | 1830 | decreased intensity or complete loss of most of the bands | EC50 ([4]; purified ICAs, 24 h at 37°C): 1800 nM; Effect on Epi parasite viability [5]: did not have a significant effect
2 | Cc1nn(C)c(Cl)c1NS(=O)(=O)c1c(Cl)cc(-c2ccnc(N3CCNCC3)c2)cc1Cl [Compound 2] | > 50000 | – | 1140 | – | – | > 50000 | – | Efficacy in mouse model of human African trypanosomiasis (T. brucei): curative; EC50 ([1]; infected U2OS cells, 48 h at 37°C): 1100 nM; Trypanocidal activity against purified ICA forms ([4]; purified ICA): no significant trypanocidal activity; also recorded: not trypanocidal
3 | Cc1nn(C)c(C)c1NS(=O)(=O)c1c(Cl)cc(CCCN2CCN(C)CC2)cc1Cl [Compound 3] | – | – | – | – | – | – | – | EC50 (U2OS cells; U2OS, 48 h): > 50000 nM; EC50 ([1]; Trypanosoma cruzi, U2OS, 48 h): 10300 nM; EC50 ([4]; Trypanosoma cruzi, 24 h): > 50000 nM
4 | Cc1c(NS(=O)(=O)c2ccc(CCCC3CCN(C)CC3)cc2)c(CC(C)C)nn1C [Compound 4] | > 50000 | – | 540 | – | – | > 50000 | – | –
5 | Cc1nn(C)c(C)c1N(C(F)F)S(=O)(=O)c1c(Cl)cc(CCCC2CCN(C)CC2)cc1Cl [Compound 5] | 11400 | toxicity only at 50 μM | 260 | no effect | overexpression of TcNMT | 60 | decreased intensity or complete loss of most of the bands | EC50 [5]: 9700 nM
6 | Cc1c(NS(=O)(=O)c2ccc(-c3cccc(CN(C)C)c3)cc2)c(CC(C)C)nn1C [Compound 6] | > 50000 | – | 990 | – | – | > 50000 | – | –
7 | Cc1nn(C)c(C)c1N(CC(F)(F)F)S(=O)(=O)c1c(Cl)cc(CCCC2CCN(C)CC2)cc1Cl [Compound 7] | 13900 | – | 1010 | – | – | 11100 | – | –
8 | Cc1nn(C)c(C)c1N(C(F)F)S(=O)(=O)c1c(Cl)cc(CCCCC2CCN(C)CC2)cc1Cl [Compound 8] | 11900 | toxicity only at 50 μM | 350 | no effect | overexpression of TcNMT | 20 | decreased intensity or complete loss of most of the bands | EC50 [5]: 2100 nM
